Where a SMILES comes first, the peptide text is derived from it.
Assays:
mice = test: Appetite suppression in mice, consumption of 20% sucrose solution; format: in vivo; details: intraperitoneal injection, 50 micrograms, in phosphate buffered saline
Method: Mice were deprived of their normal feed for two days and given free access to a 20% sucrose solution on the first day of feed deprivation. After the 2-day feed deprivation period, mice were injected intraperitoneally with 0.5ml of a solution containing the test substance. Thirty minutes after injection, individual mice were placed in one of eight 15 cm^2 test box with a stainless steel grid floor and a glass drinking tube which projected into the box. The drinking tube was connected to a reservoir containing a 20% sucrose solution, and the interior of the drinking tube contained an electrode enabling the detection of drinking contacts with the solution by measuring the flow of a weak (unnoticeable) electric current through mice by means of an electronic apparatus connected to the drinking tube electrode and the stainless steel grid floor. Consumption of the sucrose solution was measured over a 10 minute period by electronically recording the total amount of contact with the sucrose solution during the test session. The degree of appetite suppression produced by a given test substance was determined by statistical comparison of the duration of sucrose consumption by control (vehicle treated) mice with that of mice treated with a test substance. The degree of appetite suppression in a treated group of mice was expressed as percent of the control groups response. […]

fasted rats = details: cited from earlier work

CC[C@H](C)[C@H](NC(=O)[C@H](Cc1ccccc1)NC(=O)[C@H](CC(=O)O)NC(=O)[C@H](CCCNC(=N)N)NC(=O)[C@@H](NC(=O)[C@H](C)NC(=O)[C@H](CC(C)C)NC(=O)[C@H](CC(N)=O)NC(=O)[C@H](CC(=O)O)NC(=O)[C@H](CC(C)C)NC(=O)[C@@H](NC(=O)[C@@H](NC(=O)[C@H](CC(N)=O)NC(=O)[C@H](CCSC)NC(=O)[C@H](CCC(=O)O)NC(=O)[C@H](CC(=O)O)NC(=O)[C@H](CO)NC(=O)[C@H](Cc1ccccc1)NC(=O)[C@H](CO)NC(=O)CNC(=O)[C@H](CC(=O)O)NC(=O)[C@H](C)NC(=O)[C@@H](N)Cc1c[nH]cn1)[C@@H](C)O)C(C)C)[C@@H](C)O)C(=O)N[C@@H](CC(N)=O)C(=O)N[C@@H](Cc1c[nH]c2ccccc12)C(=O)N[C@@H](CC(C)C)C(=O)N[C@@H](CC(C)C)C(=O)N[C@@H](Cc1c[nH]cn1)C(=O)N[C@H](C(=O)N[C@@H](CCCCN)C(=O)N[C@H](C(=O)N[C@H](C(=O)N[C@@H](CC(=O)O)C(=O)O)[C@@H](C)O)[C@@H](C)CC)[C@@H](C)O [synthetic porcine GLP-2, porcine GLP-2] (H-HADGSFSDEMNTVLDNLATRDFINWLLHTKITD-OH)
suppressed sucrose consumption (mice): 38%

GLP-1
feeding (fasted rats; fasted rats, intracerebroventricular (ICV) administration): inhibited feeding | effect on feeding behaviour (fasted rats; peripheral administration): no effect on feeding behaviour

Glucagon
effect on food intake (fasted rats; fasted rats, intraperitoneal administration of pharmacological doses): no effect on food intake

From EP1975177B1, “An appetite-suppressing peptide, its compositions and use” (Novo Nordisk A/S, priority 1996, dated 2011)
